Ki data for 31 molecules are collected here from ChEMBL document CHEMBL1128181, “Structure-based design of nonpeptidic HIV protease inhibitors from a cyclooctylpyranone lead structure” (J Med Chem, 1995).

The assay deals with Human immunodeficiency virus type 1 protease (Human immunodeficiency virus 1, UniProt Q72874). Description: Inhibitory activity against HIV-I protease.
On to `C[C@H](NC(=O)OC(C)(C)C)C(=O)Nc1cccc(C(c2c(O)c3c(oc2=O)CCCCCC3)C2CC2)c1` (stereo partly specified), for which the inhibition constant (Ki) was determined as 6.9 nM. `CCC(c1ccccc1)c1c(O)c2c(oc1=O)CCCCCCC2` (stereo unspecified) had a Ki of 58.3 nM.

In turn, `CC(C)(C)OC(=O)N[C@@H](Cc1cnc[nH]1)C(=O)Nc1cccc(C(c2c(O)c3c(oc2=O)CCCCCC3)C2CC2)c1` (stereo partly specified) returned a Ki of 3 nM. `O=c1c2c(oc(O)c1C(C1CC1)C1CC1)CCCCCCC2` came in with a Ki of 57 nM.

For the molecule `O=c1c2c(oc(O)c1C(c1ccccc1)C1CC1)C(CC1CCCCO1)CCCCCC2` (stereo unspecified), the affinity, expressed as Ki, was 120 nM. With `CCC(c1ccccc1)c1c(O)c2c(oc1=O)C(C)CCCCCC2` (stereo unspecified), the affinity, expressed as Ki, was 330 nM. In turn, `O=C(Cc1ccccc1)Nc1cccc(C(c2c(O)oc3c(c2=O)CCCCCC3)C2CC2)c1` (stereo unspecified) displayed a Ki of 33 nM. Under `CCNC(=O)Nc1cccc(C(c2c(O)c3c(oc2=O)CCCCCC3)C2CC2)c1` (stereo unspecified) stands 72 nM. Under `CCCC1CCCCCCc2c1oc(O)c(C(c1ccccc1)C1CC1)c2=O` (stereo in doubt; 11) stands 26 nM; under `CCC(c1ccccc1)c1c(O)c2c(oc1=O)C(Cc1ccccc1)CCCCCC2` (stereo unspecified), 266 nM; under `O=C(/C=C/c1ccccc1)Nc1cccc(C(c2c(O)oc3c(c2=O)CCCCCC3)C2CC2)c1` (stereo unspecified), 470 nM. In turn, `CCCC1CCCCCCc2c1oc(O)c(C(c1ccccc1)C1CC1)c2=O` (stereo in doubt; 11e) yielded a Ki of 9 nM. Turning to `COCCC1CCCCCc2c1oc(O)c(C(c1ccccc1)C1CC1)c2=O` (stereo unspecified), the affinity corresponds to a Ki of 28 nM.

Consider `CC(C)(C)OC(=O)N1CCC[C@H]1C(=O)Nc1cccc(C(c2c(O)c3c(oc2=O)CCCCCC3)C2CC2)c1` (stereo partly specified), for which the affinity corresponds to a Ki of 43 nM. The figure for `CC(C)CC1CCCCCCc2c1oc(O)c(C(c1ccccc1)C1CC1)c2=O` (stereo unspecified) is 30 nM; for `OC1=C(C(c2ccccc2)C2CC2)COC2=C1CCCCCCC2` (stereo unspecified) it is 11.7 nM.

Regarding `CC(C)CCC1CCCCCCc2c1oc(O)c(C(c1ccccc1)C1CC1)c2=O` (stereo unspecified), the Ki was 50 nM.

Take `CCCC(=O)Nc1cccc(C(c2c(O)c3c(oc2=O)CCCCCC3)C2CC2)c1` (stereo unspecified): the affinity, expressed as Ki, was 24 nM. As for `O=c1c2c(oc(O)c1C(c1ccccc1)C1CC1)C(CC1CC1)CCCCC2` (stereo unspecified), the Ki turned out to be 24 nM.

As for `CCC1CCCCCCc2c1oc(O)c(C(c1ccccc1)C1CC1)c2=O` (stereo unspecified), the affinity, expressed as Ki, was 33 nM.

As for `CC(C)(C)OC(=O)N[C@H](Cc1cnc[nH]1)C(=O)Nc1cccc(C(c2c(O)c3c(oc2=O)CCCCCC3)C2CC2)c1` (stereo partly specified), the Ki was 11 nM. Take `CC(C)(C)OC(=O)NCCC(=O)Nc1cccc(C(c2c(O)c3c(oc2=O)CCCCCC3)C2CC2)c1` (stereo unspecified): the affinity, expressed as Ki, was 4 nM. For the molecule `O=c1c2c(oc(O)c1C(c1ccccc1)C1CC1)C(CC1CC1)CCCCCC2` (stereo unspecified), the Ki was 24 nM. Regarding `CC(C)(C)OC(=O)NCC(=O)Nc1cccc(C(c2c(O)c3c(oc2=O)CCCCCC3)C2CC2)c1` (stereo unspecified), the Ki is 5.5 nM. Turning to `O=C(Nc1cccc(C(c2c(O)oc3c(c2=O)CCCCCC3)C2CC2)c1)c1ccccc1` (stereo unspecified), the affinity corresponds to a Ki of 42 nM. Turning to `O=C(Nc1ccccc1)Nc1cccc(C(c2c(O)oc3c(c2=O)CCCCCC3)C2CC2)c1` (stereo unspecified), the affinity, expressed as Ki, was 450 nM. `CCCCC1CCCCCCc2c1oc(O)c(C(c1ccccc1)C1CC1)c2=O` (stereo unspecified) yielded an inhibition constant (Ki) of 31 nM. Molecule `O=c1c2c(oc(O)c1C(c1ccccc1)C1CC1)CCCCCC2` (stereo unspecified) registered a Ki of 96 nM. For the molecule `CC(C)(C)OC(=O)NCCCC(=O)Nc1cccc(C(c2c(O)c3c(oc2=O)CCCCCC3)C2CC2)c1` (stereo unspecified), the affinity corresponds to a Ki of 14 nM. `O=C(Nc1cccc(C(c2c(O)oc3c(c2=O)CCCCCC3)C2CC2)c1)c1ccc(F)cc1` (stereo unspecified) gave a Ki of 55 nM. Consider `C[C@@H](NC(=O)OC(C)(C)C)C(=O)Nc1cccc(C(c2c(O)c3c(oc2=O)CCCCCC3)C2CC2)c1` (stereo partly specified), for which the Ki came out at 32 nM.
